In brackets after ≈: the same amount, converted by molar mass.
Tests used:
[1] = system: Mycobacterium tuberculosis; assay: Antimycobacterial activity against Mycobacterium tuberculosis H37Rv after 14 days by broth dilution method; assay type: functional; conditions: 336 h
[2] = Growth inhibition of HEK293 cells at 50 uM by MTT assay relative to control; assay type: cell-based; conditions: human, read-out: GI
[3] = Growth inhibition of human HCT116 cells at 50 uM by MTT assay relative to control; assay type: cell-based, HCT-116; conditions: read-out: GI
[4] = Growth inhibition of human HCT116 cells at 1 to 40 uM by MTT assay relative to control; assay type: cell-based, HCT-116; conditions: read-out: GI
[5] = Growth inhibition of human MCF7 cells at 1 to 40 uM by MTT assay relative to control; assay type: cell-based; conditions: read-out: GI
[6] = Growth inhibition of human MCF7 cells at 50 uM by MTT assay relative to control; assay type: cell-based; conditions: read-out: GI
[7] = Growth inhibition of human PC3 cells at 1 to 40 uM by MTT assay relative to control; assay type: cell-based, PC-3; conditions: read-out: GI
[8] = Growth inhibition of HEK293 cells at 1 to 40 uM by MTT assay relative to control; assay type: cell-based; conditions: human, read-out: GI
[9] = Growth inhibition of human PC3 cells at 50 uM by MTT assay relative to control; assay type: cell-based, PC-3; conditions: read-out: GI
[10] = system: Staphylococcus epidermidis; assay: Antibacterial activity against Staphylococcus epidermidis ATCC 12228 after 24 hrs; assay type: functional; conditions: ATCC 12228, 24 h
Micrococcus luteus = assay: Antibacterial activity against Micrococcus luteus ATCC 10240 after 24 hrs; assay type: functional; conditions: ATCC 10240, 24 h
Staphylococcus aureus = assay: Antibacterial activity against Staphylococcus aureus ATCC 25923 after 24 hrs; assay type: functional; conditions: ATCC 25923, 24 h
Enterococcus faecalis = assay: Antibacterial activity against Enterococcus faecalis ATCC 51299 after 24 hrs; assay type: functional; conditions: ATCC 51299, 24 h
[11] = system: Mycolicibacterium smegmatis; assay: Antimycobacterial activity against Mycobacterium smegmatis ATCC 607 after 24 hrs; assay type: functional; conditions: ATCC 607, 24 h
Escherichia coli = assay: Antibacterial activity against Escherichia coli 10536 after 24 hrs; assay type: functional; conditions: Escherichia coli, 10536, 24 h
Bacillus subtilis = assay: Antibacterial activity against Bacillus subtilis ATCC 11774 after 24 hrs; assay type: functional; conditions: ATCC 11774, 24 h
Klebsiella pneumoniae = assay: Antibacterial activity against Klebsiella pneumoniae ATCC BAA-2146 after 24 hrs; assay type: functional; conditions: ATCC BAA-2146, 24 h
Pseudomonas aeruginosa = assay: Antibacterial activity against Pseudomonas aeruginosa ATCC 10145 after 24 hrs; assay type: functional; conditions: ATCC 10145, 24 h
[12] = system: Mycobacterium tuberculosis; assay: Antimycobacterial activity against Mycobacterium tuberculosis; assay type: functional
[13] = Selectivity ratio of MIC for Mycobacterium smegmatis to MIC for Mycobacterium tuberculosis; assay type: functional
[14] = system: Mycolicibacterium smegmatis; assay: Antimycobacterial activity against Mycobacterium smegmatis; assay type: functional

## CC1(C)CC(=O)C(=CNc2cccc3ccccc23)C(=O)C1
[1]
  MIC: > 80 µg/mL

## O=C1CCCC(=O)C1=CNc1ccc([N+](=O)[O-])cc1Cl
[1]
  MIC: 40 to 80 µg/mL (≈ 136 to 271 µM)

## CC1(C)CC(=O)C(=CNc2ccc([N+](=O)[O-])cc2Cl)C(=O)C1
[1]
  MIC: > 80 µg/mL

## O=C1CC(c2ccco2)CC(=O)C1=CNc1ccccc1O (stereo not drawn)
[2]
  inhibition at 50 µM: 46.4%
[3]
  inhibition at 50 µM: 42.8%
[4]
  inhibition at up to 40 µM: < 20%
[5]
  inhibition at up to 40 µM: < 20%
[6]
  inhibition at 50 µM: 2.92%
[7]
  inhibition at up to 40 µM: < 20%
[1]
  MIC: 10 to 20 µg/mL (≈ 33.6 to 67.3 µM)
[8]
  inhibition at up to 40 µM: < 20%
[9]
  inhibition at 50 µM: 26.1%

## CC1(C)CC(=O)C(=CNc2cc(Cl)c(Cl)cc2Cl)C(=O)C1
[1]
  MIC: > 80 µg/mL

## Cc1ccc(NC=C2C(=O)CC(C)(C)CC2=O)c(C)c1
[1]
  MIC: > 80 µg/mL

## CNC=C1C(=O)CC(C)(C)CC1=O
[1]
  MIC: > 80 µg/mL

## O=C1CCCC(=O)C1=CSc1ccccc1O
[1]
  MIC: 40 to 80 µg/mL (≈ 161 to 322 µM)

## O=C1CCC(=O)C1=CNc1ccc([N+](=O)[O-])cc1Cl
[1]
  MIC: > 80 µg/mL

## CC1(C)CC(=O)C(=CNc2ccccc2[N+](=O)[O-])C(=O)C1
[1]
  MIC: > 80 µg/mL

## CC1(C)CC(=O)C(=CNc2ccc(F)cc2F)C(=O)C1
[1]
  MIC: > 80 µg/mL

## CCCCCNC=C1C(=O)CC(C)(C)CC1=O
[1]
  MIC: > 80 µg/mL

## CC1(C)CC(=O)C(=CNc2cccc([N+](=O)[O-])c2)C(=O)C1
[1]
  MIC: > 80 µg/mL

## O=C1CCC(=O)C1=CNc1ccccc1O
[1]
  MIC: > 80 µg/mL

## O=C1CCCC(=O)C1=CNc1ccc([N+](=O)[O-])cc1F
[1]
  MIC: 80 µg/mL (≈ 288 µM)

## CC1(C)CC(=O)C(=CNc2ccc(Cl)cc2)C(=O)C1
[1]
  MIC: > 80 µg/mL

## CC1CC(=O)C(=CNc2ccccc2O)C(=O)C1 (stereo not drawn)
[2]
  inhibition at 50 µM: 6.08%
[3]
  inhibition at 50 µM: 35.7%
[4]
  inhibition at up to 40 µM: < 20%
[5]
  inhibition at up to 40 µM: < 20%
[6]
  inhibition at 50 µM: 16.6%
[7]
  inhibition at up to 40 µM: < 20%
[1]
  MIC: 20 µg/mL (≈ 81.5 µM)
[8]
  inhibition at up to 40 µM: < 20%
[9]
  inhibition at 50 µM: 8.2%

## O=C1CC(c2ccc(Cl)cc2)CC(=O)C1=CNc1ccccc1O (stereo not drawn)
[2]
  inhibition at 50 µM: 44%
[3]
  inhibition at 50 µM: 28.6%
[4]
  inhibition at up to 40 µM: < 20%
[5]
  inhibition at up to 40 µM: < 20%
[6]
  inhibition at 50 µM: 23.4%
[7]
  inhibition at up to 40 µM: < 20%
[1]
  MIC: 20 µg/mL (≈ 58.5 µM)
[8]
  inhibition at up to 40 µM: < 20%
[9]
  inhibition at 50 µM: 18.6%

## CC1(C)CC(=O)C(=CNc2ccccc2)C(=O)C1
[1]
  MIC: > 80 µg/mL

## CC1(C)CC(=O)C(=CNc2ccc([N+](=O)[O-])cc2F)C(=O)C1
[1]
  MIC: 80 µg/mL (≈ 261 µM)

## C[C@H]1COc2c(N3CCN(C)CC3)c(F)cc3c(=O)c(C(=O)O)cn1c23.C[C@H]1COc2c(N3CCN(C)CC3)c(F)cc3c(=O)c(C(=O)O)cn1c23.O [LEVOFLOXACIN]
[10]
  MIC: 0.039 to 0.078 µg/mL
Micrococcus luteus
  MIC: 0.078 µg/mL
Staphylococcus aureus
  MIC: 0.078 to 0.156 µg/mL
[1]
  MIC: 2.5 µg/mL
Enterococcus faecalis
  MIC: 0.156 µg/mL
[11]
  MIC: 0.156 µg/mL
Escherichia coli
  MIC: 0.078 µg/mL
Bacillus subtilis
  MIC: 0.39 µg/mL
Klebsiella pneumoniae
  MIC: 0.625 to 1.25 µg/mL
Pseudomonas aeruginosa
  MIC: 0.312 to 0.625 µg/mL

## CO[C@H]1/C=C/O[C@@]2(C)Oc3c(C)c(O)c4c(O)c(c(/C=N/N5CCN(C)CC5)c(O)c4c3C2=O)NC(=O)/C(C)=C\C=C\[C@H](C)[C@H](O)[C@@H](C)[C@@H](O)[C@@H](C)[C@H](OC(C)=O)[C@@H]1C [RIFAMPIN]
[12]
  MIC: 0.2 µg/mL (≈ 0.243 µM)
[13]
  Selectivity ratio: 500 to 1000
[1]
  MIC: 0.078 µg/mL (≈ 0.0948 µM)
[14]
  MIC: 100 µg/mL (≈ 122 µM)
